This is an account of results in patent US11708348B2, “Protease inhibitors for treatment of coronavirus infections” (The Scripps Research Institute, priority 2021, dated 2023).

This assay deals with SARS-CoV-2 strain USA-WA1/2020. Nature of the assay: microbe, parasite or virus in culture. It is filed as cell-based. Conditions: Severe acute respiratory syndrome coronavirus 2, HeLa-ACE2, 24 h, HeLa-ACE2 cells, SARS-CoV-2 infection, 24 h; class symbols; read-out: EC50, uM (Hela).
`Cc1cc(C(=O)N[C@H](C(=O)N[C@@H](CC(C)C)C(=O)N[C@@H](C[C@@H]2CCNC2=O)C(=O)COc2c(F)c(F)cc(F)c2F)C(C)C)no1` [Compound 115, 5-methyl-N-((S)-3-methyl-1-(((S)-4-methyl-1-oxo-1-(((S)-3-oxo-1-((S)-2-oxopyrrolidin-3-yl)-4-(2,3,5,6-tetrafluorophenoxy)butan-2-yl)amino)pentan-2-yl)amino)-1-oxobutan-2-yl)isoxazole-3-carboxamide]: the EC50 lay in the range of 0.2 to 0.5 µM. Turning to `Cc1ccccc1NC(=O)C(=O)N[C@@H](CC1CC1)C(=O)N[C@@H](C[C@@H]1CCNC1=O)C(=O)COc1c(F)c(F)cc(F)c1F` [Compound 116, N1-((S)-3-cyclopropyl-1-oxo-1-(((S)-3-oxo-1-((S)-2-oxopyrrolidin-3-yl)-4-(2,3,5,6-tetrafluorophenoxy)butan-2-yl)amino)propan-2-yl)-N2-(o-tolyl)oxalamide], the EC50 is < 0.05 µM. For the compound `CC(C)(C)c1ccccc1NC(=O)C(=O)N[C@@H](CC1CCCCC1)C(=O)N[C@@H](C[C@@H]1CCNC1=O)C(=O)COc1c(F)c(F)cc(F)c1F` [Compound 117, Nl-(2-(tert-butyl)phenyl)-N2-((S)-3-cyclohexyl-1-oxo-1-(((S)-3-oxo-1-((S)-2-oxopyrrolidin-3-yl)-4-(2,3,5,6-tetrafluorophenoxy)butan-2-yl)amino)propan-2-yl)oxalamide], the EC50 is < 0.05 µM. Then `Cc1cc(C(=O)N[C@H](C(=O)N[C@@H](CC(C)C)C(=O)N[C@@H](C[C@@H]2CCNC2=O)C(=O)COc2c(F)c(F)cc(F)c2F)C(C)(C)C)no1` [Compound 118, N-((S)-3,3-dimethyl-1-(((S)-4-methyl-1-oxo-1-(((S)-3-oxo-1-((S)-2-oxopyrrolidin-3-yl)-4-(2,3,5,6-tetrafluorophenoxy)butan-2-yl)amino)pentan-2-yl)amino)-1-oxobutan-2-yl)-5-methylisoxazole-3-carboxamide], with 0.2 to 0.5 µM; and `CC(C)(C)[C@H](NC(=O)C(=O)Nc1ccccc1F)C(=O)N[C@@H](C[C@@H]1CCNC1=O)C(=O)COc1c(F)c(F)cc(F)c1F` [Compound 119, N1-((S)-3,3-dimethyl-1-oxo-1-(((S)-3-oxo-1-((S)-2-oxopyrrolidin-3-yl)-4-(2,3,5,6-tetrafluorophenoxy)butan-2-yl)amino)butan-2-yl)-N2-(2-fluorophenyl)oxalamide], with 0.2 to 0.5 µM; and `COc1cccc(NC(=O)C(=O)N[C@@H](CC(C)C)C(=O)N[C@@H](C[C@@H]2CCNC2=O)C(=O)COc2c(F)c(F)cc(F)c2F)c1` [Compound 120, N1-(3-methoxyphenyl)-N2-((S)-4-methyl-1-oxo-1-(((S)-3-oxo-1-((S)-2-oxopyrrolidin-3-yl)-4-(2,3,5,6-tetrafluorophenoxy)butan-2-yl)amino)pentan-2-yl)oxalamide], with < 0.05 µM. Regarding `COc1ccc(NC(=O)C(=O)N[C@@H](CC(C)C)C(=O)N[C@@H](C[C@@H]2CCNC2=O)C(=O)COc2c(F)c(F)cc(F)c2F)cc1` [Compound 121, N1-(4-methoxyphenyl)-N2-((S)-4-methyl-1-oxo-1-(((S)-3-oxo-1-((S)-2-oxopyrrolidin-3-yl)-4-(2,3,5,6-tetrafluorophenoxy)butan-2-yl)amino)pentan-2-yl)oxalamide], the EC50 is < 0.05 µM. Then `CC(C)C[C@H](NC(=O)C(=O)Nc1ccccc1)C(=O)N[C@@H](C[C@@H]1CCNC1=O)C(=O)COC(F)(F)F` [Compound 122, N1-((S)-4-methyl-1-oxo-1-(((S)-3-oxo-1-((S)-2-oxopyrrolidin-3-yl)-4-(trifluoromethoxy)butan-2-yl)amino)pentan-2-yl)-N2-phenyloxalamide], with < 0.05 µM; and `CC(C)C[C@H](NC(=O)C(=O)Nc1ccccc1F)C(=O)N[C@@H](CCC(=O)N(C)C)C(=O)COc1c(F)c(F)cc(F)c1F` [Compound 123, N1-((S)-1-(((S)-6-(dimethylamino)-2,6-dioxo-1-(2,3,5,6-tetrafluorophenoxy)-hexan-3-yl)amino)-4-methyl-1-oxopentan-2-yl)-N2-(2-fluorophenyl)oxalamide], with 0.05 to 0.2 µM.
